Assay results from ChEMBL document CHEMBL6096651, “Synthesis, evaluation and mechanism study of novel pyrazole enamides to alleviate lung injury” (Eur J Med Chem, 2025).
One block for each compound: values may come before it. Active and inactive are the calls of the source. No cut-off for these calls is given here.

Legend:
[1] = system: RAW264.7; test: Anti-inflammatory activity against LPS-induced mouse RAW264.7 cells assessed as inhibition of IL-1beta mRNA level at 10 uM preincubated with compound for 1 hr followed by LPS-induction and measured after 4 to 24 hrs by RT-qPCR analysis; type: functional; settings: time 5-25 hrs
[2] = system: RAW264.7; test: Anti-inflammatory activity against LPS-induced mouse RAW264.7 cells assessed as inhibition of IL-6 mRNA level at 10 uM preincubated with compound for 1 hr followed by LPS-induction and measured after 4 to 24 hrs by RT-qPCR analysis; type: functional; settings: time 5-25 hrs
[3] = system: RAW264.7; test: Anti-inflammatory activity against LPS-induced mouse RAW264.7 cells assessed as inhibition of IL-6 mRNA level preincubated with compound for 1 hr followed by LPS-induction and measured after 4 to 24 hrs by RT-qPCR analysis; type: functional, cell-based; settings: dose 10-50 µM, time 5-25 hrs
[4] = system: RAW264.7; test: Anti-inflammatory activity against LPS-induced mouse RAW264.7 cells assessed as inhibition of IL-1beta mRNA level preincubated with compound for 1 hr followed by LPS-induction and measured after 4 to 24 hrs by RT-qPCR analysis; type: functional, cell-based; settings: dose 10-50 µM, time 5-25 hrs
[5] = system: RAW264.7; test: Anti-inflammatory activity against LPS-induced mouse RAW264.7 cells assessed as inhibition of TNF-alpha mRNA level preincubated with compound for 1 hr followed by LPS-induction and measured after 4 to 24 hrs by RT-qPCR analysis; type: functional, cell-based; settings: dose 10-50 µM, time 5-25 hrs
[6] = Toxicity in C57BL/6 mouse assessed as reduction in body weight at 15 to 60 mg/kg, po administered for 7 days; type: organism-based; settings: in vivo, 168 h, dose 15-60 mg/kg, time 7 day
[7] = system: RAW264.7; test: Anti-inflammatory activity against LPS-induced mouse RAW264.7 cells assessed as inhibition of IL-6 level incubated for 24 hrs by ELISA analysis; type: functional, cell-based; settings: RAW264.7, 24 h
[8] = system: Mus musculus; test: Anti-inflammatory activity against PM2.5-induced lung injury C57BL/6 mouse model assessed as reduction in number of cells in BALF at 15 to 60 mg/kg, po administered for 7 days; type: functional, organism-based; settings: dose 15-60 mg/kg, time 7.0 day
[9] = system: Mus musculus; test: Anti-inflammatory activity against PM2.5-induced lung injury C57BL/6 mouse model assessed as reduction in WBC cells in peripheral blood at 15 to 60 mg/kg, po administered for 7 days; type: functional, organism-based; settings: dose 15-60 mg/kg, time 7.0 day
[10] = system: Mus musculus; test: Anti-inflammatory activity against PM2.5-induced lung injury C57BL/6 mouse model assessed as lung particle aggregation at 15 to 60 mg/kg, po administered for 7 days by H and E staining based analysis; type: functional, organism-based; settings: dose 15-60 mg/kg, time 7.0 day
[11] = system: Mus musculus; test: Anti-inflammatory activity against PM2.5-induced lung injury C57BL/6 mouse model assessed as infiltration of inflammatory cells at 15 to 60 mg/kg, po administered for 7 days by H and E staining based analysis; type: functional, organism-based; settings: dose 15-60 mg/kg, time 7.0 day
[12] = system: Mus musculus; test: Anti-inflammatory activity against PM2.5-induced lung injury C57BL/6 mouse model assessed as pulmonary alveoli collapse at 15 to 60 mg/kg, po administered for 7 days by H and E staining based analysis; type: functional, organism-based; settings: dose 15-60 mg/kg, time 7.0 day
[13] = system: Mus musculus; test: Anti-inflammatory activity against PM2.5-induced lung injury C57BL/6 mouse model assessed as decrease in collagen formation in lung at 15 to 60 mg/kg, po administered for 7 days by Masson staining based analysis; type: functional, organism-based; settings: dose 15-60 mg/kg, time 7.0 day
[14] = system: Mus musculus; test: Anti-inflammatory activity against PM2.5-induced lung injury C57BL/6 mouse model assessed as decrease in LY6G expression in lung at 15 to 60 mg/kg, po administered for 7 days by IHC analysis; type: functional, organism-based; settings: dose 15-60 mg/kg, time 7.0 day
[15] = system: Mus musculus; test: Anti-inflammatory activity against PM2.5-induced lung injury C57BL/6 mouse model assessed as decrease in iNOS expression in lung at 15 to 60 mg/kg, po administered for 7 days by IHC analysis; type: functional, organism-based; settings: dose 15-60 mg/kg, time 7.0 day
[16] = system: Mus musculus; test: Anti-inflammatory activity against PM2.5-induced lung injury C57BL/6 mouse model assessed as increase in Arg-1 level in lung at 15 to 60 mg/kg, po administered for 7 days by IHC analysis; type: functional, organism-based; settings: dose 15-60 mg/kg, time 7.0 day
[17] = system: NCI-H292; test: Anti-inflammatory activity against EGF-induced human NCI-H292 cells assessed as decrease in MUC5AC mRNA expression at 20 to 50 uM by RT-qPCR analysis; type: functional, cell-based; settings: dose 20-50 µM
[18] = system: Mus musculus; test: Anti-inflammatory activity against PM2.5-induced lung injury C57BL/6 mouse model assessed as inhibition of mucin expression in lung at 15 to 60 mg/kg, po administered for 7 days by AB-PAS staining based analysis; type: functional, organism-based; settings: dose 15-60 mg/kg, time 7.0 day
[19] = Toxicity in C57BL/6 mouse assessed as liver damage at 15 to 60 mg/kg, po administered for 7 days by H and E staining based analysis; type: organism-based; settings: in vivo, 168 h, dose 15-60 mg/kg, time 7 day
[20] = Toxicity in C57BL/6 mouse assessed as pathological changes in kidney at 15 to 60 mg/kg, po administered for 7 days by H and E staining based analysis; type: organism-based; settings: in vivo, 168 h, dose 15-60 mg/kg, time 7 day
[21] = system: RAW264.7; test: Upregulation of Nrf2 mRNA level in LPS-induced mouse RAW264.7 cells at 10 to 50 uM; type: functional, cell-based; settings: dose 10-50 µM
[22] = system: RAW264.7; test: Upregulation of HO-1 mRNA level in LPS-induced mouse RAW264.7 cells at 10 to 50 uM; type: functional, cell-based; settings: dose 10-50 µM
[23] = system: RAW264.7; test: Upregulation of Keap1 mRNA level in LPS-induced mouse RAW264.7 cells at 10 to 50 uM; type: functional, cell-based; settings: dose 10-50 µM
[24] = system: RAW264.7; test: Activation of Nrf2-Keap1-HO-1 signaling pathway in mouse RAW264.7 cells assessed as upregulation of HO-1 expression at 10 to 50 uM by Western blot analysis; type: cell-based; settings: filed as activator, dose 10-50 µM
[25] = system: RAW264.7; test: Activation of Nrf2-Keap1-HO-1 signaling pathway in mouse RAW264.7 cells assessed as upregulation of P62 expression at 10 to 50 uM by Western blot analysis; type: cell-based; settings: filed as activator, dose 10-50 µM
[26] = system: RAW264.7; test: Anti-inflammatory activity against LPS-induced mouse RAW264.7 cells assessed as increase in NRF2 nuclear translocation by laser confocal scanning microscopic analysis; type: functional, cell-based
[27] = system: RAW264.7; test: Anti-inflammatory activity against LPS-induced mouse RAW264.7 cells assessed as inhibition of IL-1beta mRNA level at 20 uM preincubated with compound for 1 hr followed by LPS-induction and measured after 4 to 24 hrs by RT-qPCR analysis; type: functional, cell-based; settings: time 5-25 hrs
[28] = system: RAW264.7; test: Anti-inflammatory activity against LPS-induced mouse RAW264.7 cells assessed as inhibition of TNF-alpha mRNA level at 20 uM preincubated with compound for 1 hr followed by LPS-induction and measured after 4 to 24 hrs by RT-qPCR analysis; type: functional, cell-based; settings: time 5-25 hrs
[29] = system: RAW264.7; test: Activation of Nrf2/HO-1 signalling pathway in LPS-induced mouse RAW264.7 cells assessed as induction of Nrf2 nuclear translocation at 20 uM; type: cell-based; settings: filed as activator
[30] = system: RAW264.7; test: Activation of Nrf2/HO-1 signalling pathway in LPS-induced mouse RAW264.7 cells assessed as induction of Nrf2 nuclear translocation at 20 uM in presence of KI696; type: cell-based; settings: filed as activator
[31] = system: RAW264.7; test: Activation of Nrf2/HO-1 signalling pathway in LPS-induced mouse RAW264.7 cells assessed as induction of Nrf2 nuclear translocation at 2 uM; type: cell-based; settings: filed as activator
[32] = system: RAW264.7; test: Anti-inflammatory activity against LPS-induced mouse RAW264.7 cells assessed as inhibition of IL-1beta mRNA level at 2 uM preincubated with compound for 1 hr followed by LPS-induction and measured after 4 to 24 hrs by RT-qPCR analysis; type: functional, cell-based; settings: time 5-25 hrs
[33] = system: RAW264.7; test: Anti-inflammatory activity against LPS-induced mouse RAW264.7 cells assessed as inhibition of TNF-alpha mRNA level at 2 uM preincubated with compound for 1 hr followed by LPS-induction and measured after 4 to 24 hrs by RT-qPCR analysis; type: functional, cell-based; settings: time 5-25 hrs
[34] = system: RAW264.7; test: Cytotoxicity against mouse RAW264.7 cells at 10 uM by CCK-8 assay; type: functional, cell-based

SMILES: COc1ccc(-n2nc(C(=O)N(C)/C=C\c3ccccc3)cc2C(C)(C)C)cc1
inhibition at 10 µM [1]: 94.7%

SMILES: CN(/C=C\c1ccccc1)C(=O)c1cc(-c2ccc(C(F)(F)F)cc2)nn1-c1ccc(C(F)(F)F)cc1
inhibition at 10 µM [1]: 93.5%

IC50 [7]: 4.82 µM
SMILES: CN(/C=C\c1ccccc1)C(=O)c1cc(C(C)(C)C)n(-c2ccc(F)cc2)n1
inhibition at 10 µM [2]: 60.3% | inhibition at 10 µM [1]: 96% | Activity [3]: Dose-dependent-effect | Activity [4]: Dose-dependent-effect | Activity [5]: Dose-dependent-effect | Activity [6]: Non-toxic | Activity [8]: Active | Activity [9]: Active | Activity [10]: Active | Activity [11]: Active | Activity [12]: Active | Activity [13]: Active | Activity [14]: Active | Activity [15]: Active | Activity [16]: Active | Activity [17]: Active | Activity [18]: Active | Activity [19]: Non-toxic | Activity [20]: Non-toxic | Activity [21]: Active | Activity [22]: Active | Activity [23]: Active | Activity [24]: Active | Activity [25]: Active | Activity [26]: Active | Activity [27]: Active | Activity [28]: Active | Activity [29]: Active | Activity [30]: Active

SMILES: Cc1ccc(-c2cc(C(=O)N(C)/C=C\c3ccccc3)n(-c3ccc(C(F)(F)F)cc3)n2)cc1
inhibition at 10 µM [1]: 91.1%

SMILES: CN(/C=C\c1ccccc1)C(=O)c1cc(-c2ccccc2Cl)nn1-c1ccc(C(F)(F)F)cc1
inhibition at 10 µM [2]: 53.9% | inhibition at 10 µM [1]: 97.1%

SMILES: CN(/C=C\c1ccccc1)C(=O)c1cc(-c2ccccc2)nn1-c1ccc(C(F)(F)F)cc1
inhibition at 10 µM [1]: 94.5%

SMILES: Cc1cccc(-c2cc(C(=O)N(C)/C=C\c3ccccc3)n(-c3ccc(C(F)(F)F)cc3)n2)c1
inhibition at 10 µM [2]: 49.5% | inhibition at 10 µM [1]: 9.84%

SMILES: COc1cc([C@@H](CC(=O)O)c2ccc(C)c(CN3C[C@@H](C)Oc4ccccc4S3(=O)=O)c2)cc2nnn(C)c12
Activity [26]: Active | Activity [31]: Active | Activity [32]: Active | Activity [33]: Active

SMILES: CN(/C=C\c1ccccc1)C(=O)/C=C/c1ccccc1 [LANSIUMAMIDE B]
inhibition at 10 µM [2]: 73.4% | inhibition at 10 µM [1]: 18%

SMILES: Cc1ccccc1-c1cc(C(=O)N(C)/C=C\c2ccccc2)n(-c2ccc(C(F)(F)F)cc2)n1
inhibition at 10 µM [1]: 95.8%

SMILES: Cc1ccc(-n2nc(C(=O)N(C)/C=C\c3ccccc3)cc2C(C)(C)C)cc1
Activity [34]: Active

SMILES: CN(/C=C\c1ccccc1)C(=O)c1cc(-c2ccccc2C(F)(F)F)nn1-c1ccc(C(F)(F)F)cc1
inhibition at 10 µM [1]: 96%

SMILES: CN(/C=C\c1ccccc1)C(=O)c1cc(-c2ccccc2F)nn1-c1ccc(C(F)(F)F)cc1
inhibition at 10 µM [2]: 50.2% | inhibition at 10 µM [1]: 96.5%
